Earlier results as cited in patent publication US20230149410A1, “TREATMENT OF CONDITIONS ASSOCIATED WITH THYROID HORMONE” (priority 2020, published 2023).
Read-outs that look alike come from different tables or passages of the source.

Conditions: profound hypothyroidism after birth, treated immediately after birth

N[C@@H](Cc1cc(I)c(Oc2cc(I)c(O)c(I)c2)c(I)c1)C(=O)O [levothyroxine]
thyroid status by thyroid hormone testing in plasma or serum (blood): rendered chemically euthyroid | thyroid status by thyroid hormone testing in plasma or serum (blood) (listed as T4): became chemically euthyroid
